Results on ten compounds are retold here after ChEMBL document CHEMBL1201862, “PubChem BioAssay data set” (2004).

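Assay format: 96-well plates, 48-hour exposure. Here, GI50 denotes the concentration required for 50% inhibition of growth.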 Calls of active or inactive are those of the source. Cut-off read from the data, not from the text of the source: active = GI50 up to about 1.1 µM and inactive = higher. Some results are limits rather than exact numbers.

Assay in all cases: inhibition of tumour cell growth, NCI panel, 48 h
Experiment [1] relates to SNB-19.
The test system of experiment [2] is KM12.
Experiment [3] relates to NCI-H23.
Experiment [4] relates to UACC-257.
In experiment [5] the test system is BT-549.
The subject of experiment [6] is DU-145.
The test system of experiment [7] is M14.
Experiment [8] relates to NCI/ADR-RES.
Experiment [9] relates to SW-620.
For experiment [10], the system named is RPMI-8226.
The subject of experiment [11] is RXF 393.
The test system of experiment [12] is OVCAR-8.
For experiment [13], the system named is HCT-116.
In experiment [14] the test system is SF-295.
The test system of experiment [15] is MDA-N.
Experiment [16] relates to OVCAR-3.
In experiment [17] the test system is CAKI-1.
The subject of experiment [18] is HCT-15.
For experiment [19], the system named is SK-MEL-5.

On to `NCCC1([N+](=O)[O-])CCNCC1`, for which the GI50 in experiment [1], in [2], in experiment [3], in experiment [4], in [5] and in [6] was > 100 µM (inactive) throughout. Further, the GI50 in [7], in experiment [8], in experiment [9], in experiment [10], in [11] and in [12] was > 100 µM (inactive) in each case. Further, the GI50 in experiment [13] is > 100 µM (inactive); in experiment [14] it was > 100 µM (inactive); in [15] it was > 100 µM (inactive); in experiment [16], > 100 µM (inactive); in experiment [17], > 100 µM (inactive); in experiment [18], more than 100 µM. Moreover, the GI50 in experiment [19] is > 100 µM (inactive).

Regarding `COc1ccc(N2C(N)=C(C#N)C(C#N)(C#N)C2c2cccc([N+](=O)[O-])c2)cc1` (stereo not given), the GI50 in experiment [1] is 17.9 µM (inactive); in [2] it was 18.9 µM (inactive); in experiment [3] it was 15.5 µM (inactive); in experiment [4], 13.7 µM (inactive); in [5], 17.9 µM (inactive); in [6], 17.8 µM (inactive). The GI50 is 17.3 µM (inactive) in experiment [7]; 21.1 µM (inactive) in experiment [8]; 11.2 µM (inactive) in experiment [9]; 11.6 µM (inactive) in experiment [10]; 9.23 µM (inactive) in [11]; 17.9 µM (inactive) in experiment [12]. The GI50 is 9.91 µM (inactive) in experiment [13]; 19.1 µM (inactive) in [14]; 17.3 µM (inactive) in [15]; 15.4 µM (inactive) in [16]; 2.61 µM (inactive) in experiment [17]; 15.5 µM in experiment [18]. Moreover, the GI50 in experiment [19] is 13.4 µM (inactive).

On to `O=C1c2ccccc2CN1c1ccc(O)cc1`, for which the GI50 in experiment [1], in [2], in experiment [3], in [4], in experiment [5] and in experiment [6] was > 100 µM (inactive) throughout. Moreover, the GI50 in experiment [7], in experiment [8], in [9], in experiment [10], in [11] and in [12] was > 100 µM (inactive) throughout. Moreover, the GI50 in experiment [13] was > 100 µM (inactive); in experiment [14], > 100 µM (inactive); in [15], > 100 µM (inactive); in [16] it was > 100 µM (inactive); in experiment [17] it was > 100 µM (inactive); in experiment [18], more than 100 µM. Besides, the GI50 in [19] was > 100 µM (inactive).

With `COc1cc(/C=C2\C(=O)N(c3ccccc3Cl)C(c3ccccc3)S2(=O)=O)cc(OC)c1OC` (stereo not given), the GI50 in experiment [1] is 34.7 µM (inactive); in [2], 27.2 µM (inactive); in [3], 39.1 µM (inactive); in experiment [4] it was 51.1 µM (inactive); in experiment [5], 36 µM (inactive); in experiment [6], 59 µM (inactive). For the same compound, the GI50 in experiment [7] was 31.9 µM (inactive); in experiment [8] it was 29.6 µM (inactive); in experiment [9], 37.3 µM (inactive); in experiment [10], 17.2 µM (inactive); in experiment [11], 19.5 µM (inactive); in experiment [12], 45.8 µM (inactive). The GI50 is 22.9 µM (inactive) in experiment [13]; 34 µM (inactive) in [14]; 15.2 µM (inactive) in [15]; 47.4 µM (inactive) in experiment [16]; 59.7 µM (inactive) in experiment [17]; 44.7 µM in experiment [18]. For the same compound, the GI50 in [19] is 18.6 µM (inactive).

Take `CC(=O)Oc1cc2c(n(C)c1=O)-c1ccccc1C2`: the GI50 is > 100 µM (inactive) in [1]; > 100 µM (inactive) in experiment [2]; 75.5 µM (inactive) in [3]; > 100 µM (inactive) in experiment [4]; 46.1 µM (inactive) in [5]; > 100 µM (inactive) in experiment [6]. For the same compound, the GI50 was 93.3 µM (inactive) in [7]; 23.2 µM (inactive) in experiment [8]; 24.4 µM (inactive) in experiment [9]; > 100 µM (inactive) in experiment [10]; > 100 µM (inactive) in [11]; 32 µM (inactive) in experiment [12]. In addition, the GI50 in experiment [13] is 34.7 µM (inactive); in [14], > 100 µM (inactive); in [15], > 100 µM (inactive); in experiment [16] it was 33.3 µM (inactive); in [17] it was 29.1 µM (inactive); in experiment [18], 28.1 µM. Moreover, the GI50 in experiment [19] was 85.3 µM (inactive).

For `Fc1cc(F)c(F)c(S)c1F`, the GI50 in [1] is > 100 µM (inactive); in [2], > 100 µM (inactive); in experiment [3] it was > 100 µM (inactive); in [4], > 100 µM (inactive); in [5], 26 µM (inactive); in experiment [6], > 100 µM (inactive). Besides, the GI50 in [7] is > 100 µM (inactive); in experiment [8], 19.4 µM (inactive); in experiment [9], 59.7 µM (inactive); in [10] it was 31.3 µM (inactive); in experiment [11], 23.7 µM (inactive); in experiment [12], 41.1 µM (inactive). Also, the GI50 in experiment [13] was > 100 µM (inactive); in [14] it was > 100 µM (inactive); in experiment [15], > 100 µM (inactive); in experiment [16], > 100 µM (inactive); in experiment [17], > 100 µM (inactive); in [18], 59.6 µM. Besides, the GI50 in experiment [19] was > 100 µM (inactive).

Regarding `Cc1cc2c(O)c(c1)CN(Cc1ccccc1)Cc1cc(C)cc(c1O)CN(Cc1ccccc1)Cc1cc(C)cc(c1O)CN(Cc1ccccc1)C2`, the GI50 in [1], in experiment [2], in experiment [3], in experiment [4], in experiment [5] and in [6] was > 100 µM (inactive) throughout. Also, the GI50 in experiment [7] was > 100 µM (inactive); in [8] it was > 100 µM (inactive); in experiment [9], > 100 µM (inactive); in [10], > 100 µM (inactive); in experiment [11], 75.2 µM (inactive); in experiment [12], > 100 µM (inactive). In addition, the GI50 in [13] is > 100 µM (inactive); in experiment [14], > 100 µM (inactive); in [15], > 100 µM (inactive); in [16] it was > 100 µM (inactive); in experiment [17] it was > 100 µM (inactive); in [18] it was more than 100 µM. Also, the GI50 in experiment [19] was > 100 µM (inactive).

For the compound `O=P(OCc1ccccc1)(OCc1ccccc1)C(O)/C=C/c1ccccc1` (stereo not given), the GI50 in experiment [1] was 23 µM (inactive); in experiment [2], 19.8 µM (inactive); in [3] it was 20.2 µM (inactive); in experiment [4] it was 17 µM (inactive); in experiment [5] it was 28.2 µM (inactive); in experiment [6], 42.9 µM (inactive). Besides, the GI50 was 18.1 µM (inactive) in [7]; 26.5 µM (inactive) in [8]; 26.1 µM (inactive) in experiment [9]; 23.6 µM (inactive) in experiment [10]; 33.8 µM (inactive) in experiment [11]; 24 µM (inactive) in experiment [12]. Besides, the GI50 in experiment [13] was 17.7 µM (inactive); in experiment [14], 20.3 µM (inactive); in experiment [15] it was 17.3 µM (inactive); in experiment [16] it was 20.9 µM (inactive); in experiment [17] it was 35.7 µM (inactive); in experiment [18] it was 36.8 µM. Further, the GI50 in [19] was 19.3 µM (inactive).

With `Cc1ccc(-c2c3nc(c(-c4ccc(C)cc4)c4ccc([nH]4)c(-c4ccc(OCC5COC(C)(C)O5)cc4)c4nc(c(-c5ccc(C)cc5)c5ccc2[nH]5)C=C4)C=C3)cc1` (stereo not given), the GI50 is > 31.6 µM (inactive) in experiment [1]; > 31.6 µM (inactive) in experiment [2]; > 31.6 µM (inactive) in experiment [3]; > 31.6 µM (inactive) in [4]; > 100 µM (inactive) in experiment [5]; > 31.6 µM (inactive) in experiment [6]. The GI50 in experiment [7] is > 31.6 µM (inactive); in experiment [8], > 31.6 µM (inactive); in experiment [9] it was > 31.6 µM (inactive); in [10], > 100 µM (inactive); in [11], > 10 µM (inactive); in experiment [12] it was 25.1 µM (inactive). For the same compound, the GI50 in experiment [13] was > 31.6 µM (inactive); in [14], 20.5 µM (inactive); in experiment [15] it was > 31.6 µM (inactive); in experiment [16] it was > 31.6 µM (inactive); in experiment [17], > 100 µM (inactive); in experiment [18], more than 31.6 µM. Moreover, in [19], the GI50 is > 31.6 µM (inactive).

For `COc1ccc(SCc2cc(OCc3ccccc3)c(OCc3ccccc3)c(OCc3ccccc3)c2)cc1`, the GI50 was 1.72 µM (inactive) in experiment [1]; 1.64 µM (inactive) in [2]; 1.75 µM (inactive) in [3]; 1.71 µM (inactive) in experiment [4]; 2.24 µM (inactive) in experiment [5]; 1.75 µM (inactive) in experiment [6]. Also, the GI50 in experiment [7] was 1.92 µM (inactive); in [8], 1.71 µM (inactive); in [9], 1.7 µM (inactive); in experiment [10] it was 2.84 µM (inactive); in [11], 1.92 µM (inactive); in [12], 1.78 µM (inactive). Further, the GI50 in [13] is 1.75 µM (inactive); in experiment [14] it was 1.87 µM (inactive); in experiment [15], 1.83 µM (inactive); in [16] it was 1.65 µM (inactive); in experiment [17], 1.6 µM (inactive); in [18] it was 1.84 µM. Moreover, the GI50 in experiment [19] was 1.84 µM (inactive).
